For twelve compounds, IC50 and AC50 results are on record in ChEMBL document CHEMBL1201862, “PubChem BioAssay data set” (2004).

Calls of active or inactive are those of the source. Some results are limits rather than exact numbers.

One assay addresses Large T antigen (Simian virus 40, UniProt P03070). Format: functional, Betapolyomavirus macacae.
For assay [1], the target named is T1, 1-phosphatidylinositol 4,5-bisphosphate phosphodiesterase gamma-1 (Homo sapiens, UniProt P19174).
T1 sequence (P19174 whole entry): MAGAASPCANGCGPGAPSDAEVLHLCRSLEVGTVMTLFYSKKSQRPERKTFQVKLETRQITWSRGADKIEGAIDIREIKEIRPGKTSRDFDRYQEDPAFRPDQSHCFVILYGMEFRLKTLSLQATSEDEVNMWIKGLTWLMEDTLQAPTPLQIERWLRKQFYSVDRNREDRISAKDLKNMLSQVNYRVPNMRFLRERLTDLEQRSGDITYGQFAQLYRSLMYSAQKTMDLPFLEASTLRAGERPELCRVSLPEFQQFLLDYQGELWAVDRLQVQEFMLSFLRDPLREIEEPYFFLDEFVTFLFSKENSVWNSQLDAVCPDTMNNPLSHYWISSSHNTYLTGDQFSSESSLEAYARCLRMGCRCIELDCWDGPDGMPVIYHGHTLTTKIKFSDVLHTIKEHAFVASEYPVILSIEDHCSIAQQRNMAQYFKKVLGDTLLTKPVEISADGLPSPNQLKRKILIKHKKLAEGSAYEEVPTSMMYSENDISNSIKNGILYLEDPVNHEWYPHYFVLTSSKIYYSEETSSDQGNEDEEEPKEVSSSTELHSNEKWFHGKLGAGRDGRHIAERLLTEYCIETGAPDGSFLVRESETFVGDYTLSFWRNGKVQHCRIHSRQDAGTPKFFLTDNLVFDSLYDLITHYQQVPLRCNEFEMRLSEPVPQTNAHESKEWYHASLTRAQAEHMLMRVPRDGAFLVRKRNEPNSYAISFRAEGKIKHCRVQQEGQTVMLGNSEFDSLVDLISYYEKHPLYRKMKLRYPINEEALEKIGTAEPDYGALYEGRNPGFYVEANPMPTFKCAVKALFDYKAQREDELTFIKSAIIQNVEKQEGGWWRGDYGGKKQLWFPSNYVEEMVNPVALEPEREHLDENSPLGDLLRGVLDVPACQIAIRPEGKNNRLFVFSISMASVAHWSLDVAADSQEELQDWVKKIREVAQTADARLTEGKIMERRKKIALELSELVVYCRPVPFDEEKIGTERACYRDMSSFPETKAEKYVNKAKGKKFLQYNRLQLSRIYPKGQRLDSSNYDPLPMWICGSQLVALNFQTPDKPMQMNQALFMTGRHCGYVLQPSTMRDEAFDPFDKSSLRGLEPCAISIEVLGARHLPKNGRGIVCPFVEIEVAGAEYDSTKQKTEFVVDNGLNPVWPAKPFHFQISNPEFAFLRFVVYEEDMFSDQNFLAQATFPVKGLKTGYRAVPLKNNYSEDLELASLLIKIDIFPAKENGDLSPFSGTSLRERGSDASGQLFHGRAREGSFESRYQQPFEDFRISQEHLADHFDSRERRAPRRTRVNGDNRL
The assay is described as follows: Counterscreen for inhibitors of phospholipase C isozymes (PLC-B3): Fluorescence-based biochemical high throughput dose response assay to identify inhibitors of phospholipase C isozymes (PLC-gamma1).

The target in assay [2] is T2, 1-phosphatidylinositol 4,5-bisphosphate phosphodiesterase beta-3 (Homo sapiens, UniProt Q01970).
T2 sequence (Q01970 whole entry): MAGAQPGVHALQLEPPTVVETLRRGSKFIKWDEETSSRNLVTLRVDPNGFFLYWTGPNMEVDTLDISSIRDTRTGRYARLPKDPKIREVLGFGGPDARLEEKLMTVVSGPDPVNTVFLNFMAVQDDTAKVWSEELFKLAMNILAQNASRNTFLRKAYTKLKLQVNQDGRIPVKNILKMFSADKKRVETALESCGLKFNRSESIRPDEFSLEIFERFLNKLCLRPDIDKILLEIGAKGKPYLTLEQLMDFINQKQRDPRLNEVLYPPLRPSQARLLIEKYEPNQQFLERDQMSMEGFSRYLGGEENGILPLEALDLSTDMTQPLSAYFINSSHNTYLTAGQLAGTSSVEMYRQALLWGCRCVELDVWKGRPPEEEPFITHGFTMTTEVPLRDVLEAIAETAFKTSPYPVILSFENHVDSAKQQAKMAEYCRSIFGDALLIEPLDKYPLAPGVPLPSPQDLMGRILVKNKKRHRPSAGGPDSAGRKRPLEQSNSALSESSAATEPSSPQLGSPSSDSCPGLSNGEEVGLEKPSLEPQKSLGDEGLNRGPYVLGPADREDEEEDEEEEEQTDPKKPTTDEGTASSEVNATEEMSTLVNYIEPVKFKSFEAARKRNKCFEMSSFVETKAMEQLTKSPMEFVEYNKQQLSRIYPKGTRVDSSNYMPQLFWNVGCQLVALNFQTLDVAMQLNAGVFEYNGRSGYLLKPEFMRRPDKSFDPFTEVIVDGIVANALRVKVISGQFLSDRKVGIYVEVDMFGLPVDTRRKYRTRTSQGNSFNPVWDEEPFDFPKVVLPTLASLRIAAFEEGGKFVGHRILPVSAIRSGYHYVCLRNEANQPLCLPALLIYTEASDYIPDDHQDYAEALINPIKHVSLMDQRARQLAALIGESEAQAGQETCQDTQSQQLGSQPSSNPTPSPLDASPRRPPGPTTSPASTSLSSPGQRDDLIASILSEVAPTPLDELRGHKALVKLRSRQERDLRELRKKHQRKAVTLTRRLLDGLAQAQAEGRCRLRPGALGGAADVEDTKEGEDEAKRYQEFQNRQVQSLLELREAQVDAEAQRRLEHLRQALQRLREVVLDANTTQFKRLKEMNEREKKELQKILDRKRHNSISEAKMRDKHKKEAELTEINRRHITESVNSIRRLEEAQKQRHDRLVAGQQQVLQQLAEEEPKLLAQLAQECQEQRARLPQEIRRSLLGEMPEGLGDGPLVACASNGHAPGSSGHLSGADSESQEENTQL
The assay is described as follows: Fluorescence-based biochemical high throughput dose response assay to identify inhibitors of phospholipase C isozymes (PLC-B3).

In another assay the test system is H9c2. The assay is described as follows: cells. Format: functional, cell-based. The conditions noted are these: Rattus norvegicus, H9c2, Myocardium.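 Note: confirmatory concentration-response retest of ultra-high-throughput screening hits for modulation of myocardial damage; cell death induced by hydrogen peroxide oxidative stress; compound pretreatment for 60 min then peroxide exposure for 2 h; potency is for protecting the cells against peroxide damage rather than for killing them.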
Assay [3] concerns the target Eukaryotic translation initiation factor 4E (Mus musculus, UniProt P63073). The assay is described as follows: eIF4E–eIF4G protein interaction inhibitors, dose response, biochemical, TR-FRET (AID 855).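 Note: potency for disrupting eIF4E binding to eIF4GI seen as loss of FRET.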 Type of assay: functional.
The nature of assay [4]: A549 cell cytotoxicity, dose response, cytotoxicity control, plate reader, cherry-pick, antagonist series (AID 743412). Type of assay: functional, cell-based.
Assay [5] is described as follows: HEK293 cell cytotoxicity, dose response, cytotoxicity control, plate reader, cherry-picked samples (AID 743446). Type of assay: functional, cell-based.
The nature of assay [6]: MC4R antagonists, dose response, counter-screen for LGR2 antagonist project, cell-based, plate reader, cherry pick (AID 743444).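 Note: transfected HEK 293 cells stimulated with alpha-MSH peptide; potency of inhibitors of the alpha-MSH evoked signal.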 Format: functional.
Assay [7] is described as follows: HepG2 cell cytotoxicity, dose response, cytotoxicity control, plate reader, cherry-pick, antagonist series (AID 743416). Format: functional, cell-based.
The nature of assay [8]: LGR2 antagonists, dose response, cell-based, HEK293, CRE-luciferase reporter, cherry pick, set 2 (AID 743343).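 Note: transfected cells were stimulated with diluted bursicon conditioned medium after compound addition.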 Type of assay: functional.
A short description of assay [9]: P. falciparum ATP4 D1247Y mutant growth inhibitors, dose response, NITD609-resistant line, SYBR Green, dry powder (AID 1159571).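 Note: parasites synchronized at ring stage by sorbitol before testing.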 Format: functional, cell-based.
The nature of assay [10]: HepG2 cell cytotoxicity, dose response, cytotoxicity control, plate reader, dry powder samples (AID 1159569).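 Note: inhibitor potency with signal falling toward the positive control level.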 Type of assay: functional, cell-based.
Assay [11] in a line: P. falciparum 3D7-ScDHODH growth inhibitors, dose response, SYBR Green, dry powder samples (AID 1159570).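 Note: parasite growth measured after 72 hours of compound exposure.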 Type of assay: functional, cell-based.
A short description of assay [12]: P. falciparum Dd2 growth inhibitors, dose response, SYBR Green, cherry-picked samples (AID 1159567). Type of assay: functional, cell-based.
Assay [13] in a line: P. falciparum Dd2 growth inhibitors, dose response, SYBR Green, dry powder samples (AID 1159566).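 Note: potency for growth inhibition with lower SYBR green DNA signal.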 Format: functional, cell-based.
Assay [14] in a line: HepG2 cell cytotoxicity, dose response, cytotoxicity control, cherry-picked samples (AID 1159577). Format: functional, cell-based.
Assay [15] is described as follows: P. falciparum Dd2 growth inhibitors, dose response, SYBR Green, dry powder samples, set 9 (AID 1159568). Type of assay: functional, cell-based.

Sequence of Eukaryotic translation initiation factor 4E (P63073 whole entry): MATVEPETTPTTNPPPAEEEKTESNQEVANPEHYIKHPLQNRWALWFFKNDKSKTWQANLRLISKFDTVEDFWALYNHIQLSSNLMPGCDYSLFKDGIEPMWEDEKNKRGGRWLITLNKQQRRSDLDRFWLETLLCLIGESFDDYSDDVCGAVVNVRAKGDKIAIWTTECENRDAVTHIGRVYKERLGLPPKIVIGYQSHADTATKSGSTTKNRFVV
Sequence of Large T antigen (P03070 whole entry): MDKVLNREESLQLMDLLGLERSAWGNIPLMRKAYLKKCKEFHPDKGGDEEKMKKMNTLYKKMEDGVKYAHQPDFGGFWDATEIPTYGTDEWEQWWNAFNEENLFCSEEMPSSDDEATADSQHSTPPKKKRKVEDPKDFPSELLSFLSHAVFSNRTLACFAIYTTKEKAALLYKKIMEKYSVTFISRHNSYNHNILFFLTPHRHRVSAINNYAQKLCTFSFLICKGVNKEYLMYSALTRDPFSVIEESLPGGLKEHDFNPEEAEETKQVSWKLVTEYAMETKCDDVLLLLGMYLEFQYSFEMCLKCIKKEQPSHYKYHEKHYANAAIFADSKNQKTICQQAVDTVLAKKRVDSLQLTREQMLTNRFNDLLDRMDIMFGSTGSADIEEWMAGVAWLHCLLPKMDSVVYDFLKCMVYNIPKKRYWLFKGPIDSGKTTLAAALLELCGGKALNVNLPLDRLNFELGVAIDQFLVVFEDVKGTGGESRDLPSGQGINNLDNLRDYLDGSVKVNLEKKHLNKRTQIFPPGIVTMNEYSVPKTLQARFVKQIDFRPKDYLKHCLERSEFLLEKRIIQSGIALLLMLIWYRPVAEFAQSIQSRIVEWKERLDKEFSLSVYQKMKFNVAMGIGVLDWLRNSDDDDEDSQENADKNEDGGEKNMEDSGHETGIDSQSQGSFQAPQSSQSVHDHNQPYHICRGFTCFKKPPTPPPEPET

As to `O=C1NC(=S)S/C1=C\c1ccc(SCc2ccccc2)o1`, the IC50 on Large T antigen is > 100 µM (active); in [1] it was > 122 µM (inactive); in assay [2], > 122 µM (inactive).

On to `O=C(COC(=O)c1ccccc1C(=O)OCC(=O)NCCc1c[nH]c2ccccc12)NCCc1c[nH]c2ccccc12`, for which the figures for the IC50 (in assay [1]; in [2]; in the assay on H9c2) were > 123 µM (inactive), > 123 µM (inactive) and > 79 µM (inactive), respectively.

Take `CCNc1nc(NC(C)C)nc(Oc2ccc(OCCOc3ccccc3)nn2)n1`: in assay [3], the IC50 was > 64 µM (inactive).

Consider `C/N=C1/SC(CC(=O)NCCc2ccc(OC)c(OC)c2)C(=O)N1C` (configuration not stated), for which the IC50 in [1] and in assay [2] was > 122 µM (inactive) each time.

As to `COc1ccc(-c2coc3c(C(=O)Nc4cc(OC)c(OC)c(OC)c4)cccc23)c(C)c1`, the half-maximal activity concentration (AC50) in assay [4] was 9.94 µM (active); in assay [5] it was 15.3 µM (active); in assay [6] it was 0.905 µM (active); in [7], 18.3 µM (active); in assay [8] it was 1.2 µM (active).

Consider `COc1ccccc1-c1ccc2c(c1)[C@@H]1[C@@H](CCN1C(=O)C1CCCCC1)[C@@H](CO)N2`, for which the AC50 was 0.498 µM (active) in assay [9]; 11.1 µM (active) in assay [10]; 0.488 µM (active) in assay [11]; 1.74 µM (active) in assay [12]; 0.283 µM (active) in assay [13].

As for `CCCc1cn(CC[C@@H]2CC[C@@H](NS(=O)(=O)c3ccc(-c4ccccc4)cc3)[C@@H](CO)O2)nn1`, the AC50 in [14] is > 39 µM (inactive); in assay [9] it was 0.949 µM (active); in assay [10], 33.6 µM (active); in [11] it was 1.6 µM (active); in [12], 1.45 µM (active); in assay [13], 0.698 µM (active).

`COc1ccccc1S(=O)(=O)N(C)C[C@@H]1Oc2cc(/C=C/c3ccccc3)ccc2S(=O)(=O)N([C@H](C)CO)C[C@H]1C`: the AC50 was 0.215 µM (active) in assay [9]; 81.6 µM (active) in assay [10]; 0.466 µM (active) in assay [11]; 0.459 µM (active) in assay [12]; 0.443 µM (active) in assay [15]; 0.22 µM (active) in assay [13].

As for `OC[C@@H]1[C@H](c2ccc(-c3ccc(F)cc3)cc2)[C@@H](CNC2CCCC2)N1CCC(F)(F)F`, the AC50 in [14] was > 39 µM (inactive); in [9] it was 0.241 µM (active); in assay [10] it was 21.1 µM (active); in assay [11], 0.259 µM (active); in assay [12], 0.401 µM (active); in [15], 0.491 µM (active). For the same compound, the concentration at half-maximal activity (AC50) in assay [13] was 0.113 µM (active).

Consider `CCCC#Cc1ccc2c(c1)O[C@@H](CN(C)Cc1ccncc1)[C@H](C)CN([C@@H](C)CO)S2(=O)=O`, for which the results for the AC50 in assay [14] and in [12] were > 39 µM (inactive) and 3.85 µM (active), respectively.

Regarding `O=C(Nc1ccc(F)cc1)N1CCCCN2[C@@H](CO)[C@H](c3ccc(C#Cc4ccccc4)cc3)[C@@H]2C1`, the half-maximal activity concentration (AC50) is 7.42 µM (active) in [14] and < 0.3 µM (active) in assay [12].

As for `COc1ccc(-c2nc(-c3ccccc3)no2)c(OC)c1`, the AC50 in [4] is 28.4 µM (active); in [5], 31.9 µM (active); in [6] it was 1.05 µM (active); in assay [7], 47.6 µM (active); in assay [8] it was 0.621 µM (active).
